From PMC7020312 (CPT: Pharmacometrics & Systems Pharmacology, 2020)
Like-named read-outs stand apart in the source and are kept apart here.

How the values were obtained:
[1] = Physicochemical properties used as PBPK inputs; conditions: samidorphan, unpublished data provided by Alkermes
[2] = Blood-to-plasma partition ratio and fraction unbound in plasma; assay type: in vitro ADME
[3] = Caco-2 apical-to-basolateral apparent permeability; assay type: in vitro ADME; conditions: human
[4] = Unbound intrinsic metabolic clearance; assay type: in vitro ADME; conditions: human
[5] = system: non-CYP3A4 enzymes; assay: Unbound intrinsic metabolic clearance; assay type: in vitro ADME; conditions: human
[6] = molecular target: T1, CYP3A4 (Homo sapiens, UniProt P08684); assay type: in vitro ADME
[7] = Renal clearance / renal excretion of unchanged drug; conditions: human, in vivo
[8] = molecular target: CYP2D6 (Homo sapiens, UniProt P10635); assay: CYP2D6 competitive inhibition; assay type: biochemical
[9] = Fraction unbound in microsomal incubation; assay type: in vitro ADME; conditions: 0.5 mg/mL microsomal incubation; unpublished data provided by Alkermes
[10] = cited from earlier work
[11] = system: human μ‐opioid receptor; conditions: in vitro; cited from earlier work
[12] = system: human κ‐opioid receptor; conditions: in vitro; cited from earlier work
[13] = system: human δ‐opioid receptor; conditions: in vitro; cited from earlier work
[14] = system: μ‐opioid receptors; conditions: in vitro; cited from earlier work
[15] = system: κ‐opioid receptors; conditions: in vitro; cited from earlier work
[16] = system: δ‐opioid receptors; conditions: in vitro; cited from earlier work
[17] = system: opioid receptor; conditions: cited from earlier work
[18] = system: CYP1A2; assay: Unbound intrinsic metabolic clearance assigned to CYP1A2; assay type: in vitro ADME; conditions: human, human liver microsomes and recombinant enzymes
[19] = system: CYP2C8; assay: Unbound intrinsic metabolic clearance assigned to CYP2C8; assay type: in vitro ADME; conditions: human, human liver microsomes and recombinant enzymes
[20] = system: UGT1A4; assay: Unbound intrinsic metabolic clearance assigned to UGT1A4; assay type: in vitro ADME; conditions: human, human liver microsomes and recombinant enzymes
[21] = system: FMO3; assay: Unbound intrinsic metabolic clearance assigned to FMO3; assay type: in vitro ADME; conditions: human, human liver microsomes and recombinant enzymes
[22] = olanzapine PBPK input, cited from earlier work
[23] = molecular target: T1, CYP3A4; conditions: cited from earlier work
[24] = cited from earlier work; remark: listed apart in the source
[25] = ± itraconazole 200 mg q.d., observed, sublingual BUP/SAM 2/2

T1 sequence (P08684 whole entry): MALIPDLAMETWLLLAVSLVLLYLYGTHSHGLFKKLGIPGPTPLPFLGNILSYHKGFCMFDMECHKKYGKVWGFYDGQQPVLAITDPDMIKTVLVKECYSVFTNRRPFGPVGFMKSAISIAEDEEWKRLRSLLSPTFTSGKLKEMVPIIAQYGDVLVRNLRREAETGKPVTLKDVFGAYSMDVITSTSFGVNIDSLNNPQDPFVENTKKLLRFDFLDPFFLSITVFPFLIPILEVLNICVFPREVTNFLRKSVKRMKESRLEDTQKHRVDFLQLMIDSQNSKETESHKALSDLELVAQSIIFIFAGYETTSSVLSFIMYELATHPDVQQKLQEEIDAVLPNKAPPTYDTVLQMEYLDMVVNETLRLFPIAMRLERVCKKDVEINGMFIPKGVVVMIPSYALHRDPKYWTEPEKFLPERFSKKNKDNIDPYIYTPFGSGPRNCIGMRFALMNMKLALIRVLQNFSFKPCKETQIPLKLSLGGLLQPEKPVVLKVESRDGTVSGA
CYP2D6, sequence (P10635 whole entry): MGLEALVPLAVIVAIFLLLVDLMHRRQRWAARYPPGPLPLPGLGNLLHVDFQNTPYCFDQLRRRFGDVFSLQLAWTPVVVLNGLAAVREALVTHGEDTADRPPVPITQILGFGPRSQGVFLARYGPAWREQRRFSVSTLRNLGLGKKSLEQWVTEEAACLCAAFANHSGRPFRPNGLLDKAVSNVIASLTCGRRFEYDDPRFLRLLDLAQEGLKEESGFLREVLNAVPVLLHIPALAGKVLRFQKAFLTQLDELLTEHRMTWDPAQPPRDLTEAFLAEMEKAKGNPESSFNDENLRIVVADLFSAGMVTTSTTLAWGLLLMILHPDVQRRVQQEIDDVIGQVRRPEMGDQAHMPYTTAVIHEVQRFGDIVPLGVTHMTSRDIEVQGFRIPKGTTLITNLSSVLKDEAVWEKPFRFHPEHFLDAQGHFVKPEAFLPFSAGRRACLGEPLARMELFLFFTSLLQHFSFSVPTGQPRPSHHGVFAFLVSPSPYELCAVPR

## NC(=O)c1ccc2c(c1O)[C@]13CCN(CC4CC4)[C@H](C2)[C@]1(O)CCC(=O)C3 [Samidorphan, samidorphan]
[1]; pKa1 (acid)
  pKa: 7.5
[1]; pKa2 (base)
  pKa: 8.2
[1]
  Compound type: Ampholyte
[2]; plasma
  fraction unbound: 0.69
[2]; samidorphan, unpublished data provided by Alkermes
  B:P (blood‐to‐plasma partition ratio): 1
[3]; Caco-2, pH 6.5
  Papp A→B: 18.8 ×10⁻⁶ cm/s
[4]
  microsomal CLint: 11.2 µL/min/mg
[5]
  microsomal CLint: 5.22 µL/min/mg
[6]
  microsomal CLint: 5.93 µL/min/mg
[7]
  CL renal: 183 mL/min
[8]
  Ki: 41.5 µM
[9]
  fumic at 0.5 mg/mL: 0.86
[10]; [25]
  AUC ratio (geometric mean): 1.50
  Cmax ratio (geometric mean): 1.12
[11]
  binding affinity (in words): high affinity
[12]
  binding affinity (in words): high affinity
[13]
  binding affinity (in words): high affinity
[14]
  functional activity (in words): antagonist
[15]
  functional activity (in words): partial agonist
[16]
  functional activity (in words): partial agonist
[17]
  in vivo function (in words): opioid receptor antagonist

## Cc1cc2c(s1)Nc1ccccc1N=C2N1CCN(C)CC1 [Olanzapine, olanzapine]
[3]; Caco-2, pH 7.4
  Papp A→B: 17.4 ×10⁻⁶ cm/s
[4]
  microsomal CLint: 57.9 µL/min/mg
[18]
  microsomal CLint: 23.7 µL/min/mg
[19]
  microsomal CLint: 4.98 µL/min/mg
[6]; human liver microsomes and recombinant enzymes
  microsomal CLint: 4.42 µL/min/mg
[20]
  microsomal CLint: 20.6 µL/min/mg
[21]
  microsomal CLint: 4.28 µL/min/mg
[22]; ref Callaghan et al.21
  Compound type: Monoprotic base
[22]; ref El‐Ela et al.29
  log P: 2.89
[23]
  contribution of CYP3A4 to the overall clearance: < 10%
[24]
  administered dose excreted renally as unchanged drug: 7%
[24]; olanzapine, ref Kassahun et al.15
  CLR (renal clearance): 0.81 L/h
[10]; pharmacokinetics study (N = 49)
  AUC lower in smokers than in nonsmokers: 15%
[10]; population pharmacokinetic analysis (N = 523)
  increase in clearance, smokers vs. nonsmokers: 55%
